Key:
[1] = tested on: MMP-9; assay: MMP-9 production by LPS-stimulated neutrophils (ELISA); assay type: cell-based, human; settings: LPS 100 ng/mL, 24 h, % of stimulated control
Excerpt: (§1) Peripheral venous blood was taken from healthy human donors (20–35 years old) in the Warsaw Blood Donation Centre. […] The study conformed to the principles of the Declaration of Helsinki. Neutrophils were isolated using a standard method of dextran sedimentation prior to hypotonic lysis of erythrocytes and to centrifugation in a Ficoll Hypaque gradient. The purity of neutrophil preparations was >97 %, and viability measured by trypan blue exclusion was >98 %. Neutrophils were then resuspended in appropriate medium to perform the selected assay.
(§2) Neutrophils (2 × 10^5/mL) were cultured in 24-well plates in RPMI 1640 medium with 10 % FBS, 10 mM HEPES, and 2 mM L-glutamine in the absence or presence of LPS (100 ng/mL) for 24 h at 37 °C with 5 % CO2 in the absence or presence of extract at concentrations of 1, 5 and 20 μg/mL, and compounds at concentrations of 1, 5 and 20 μM were added to 1 mL of cell suspension 1 h before the stimuli. After 24 h, the neutrophils were harvested and centrifuged (2000 RPM; 10 min; 4 °C). The amount of IL-8 or MMP-9 released into cell supernatants was measured by enzyme-linked immunosorbent assay (ELISA) following the manufacturer’s instructions (R&D Systems, Minneapolis, MN, USA). PBS was used as a non-stimulated control. Curcumin was used as a positive control, according to Aggarwal and Harikumar and Antoine et al..

[2] = tested on: IL-8; assay: IL-8 production by LPS-stimulated neutrophils (ELISA); assay type: cell-based, human; settings: LPS 100 ng/mL, 24 h, % of stimulated control
Excerpt: as §1, §2

[3] = tested on: elastase; assay: Elastase release from cytochalasin A/f-MLP-stimulated neutrophils (SAAVNA substrate); assay type: cell-based, human; settings: % of stimulated control
Excerpt: as §1
Neutrophil elastase release was determined using SAAVNA as a substrate, and […] was measured spectrophotometrically. 100 μL of cell suspension (5 × 10^5/mL) in HBSS was preincubated with 50 μL of compound or extract solution (final concentrations of 1, 5 and 20 μM or μg/mL) for 15 min at 37 °C and then stimulated with 50 μL of cytochalasin A (5 μg/mL) and f-MLP (0.1 μg/mL) for 15 min. The neutrophils were centrifuged (2000 rpm; 10 min; 4 °C). After the addition of 50 μL of SAAVNA solution (1.6 mg/mL) to 100 μL of supernatant, the extent of […] was measured spectrophotometrically for 1 h at intervals of 20 min, at 412 nm using a microplate reader (BioTek). According to Kanashiro et al., quercetin was used as a positive control.

[4] = molecular target: T1, bovine testis hyaluronidase (Bos taurus, UniProt Q2YDK3); assay: Hyaluronidase activity, USP turbidimetric method modified; assay type: biochemical; settings: for Hyaluronidase activity Mean(%): % of 100% active enzyme control
T1 construct: purchased Sigma–Aldrich GmbH (Steinheim, Germany); host or cells: bovine testis
T1 sequence (Q2YDK3 36-553): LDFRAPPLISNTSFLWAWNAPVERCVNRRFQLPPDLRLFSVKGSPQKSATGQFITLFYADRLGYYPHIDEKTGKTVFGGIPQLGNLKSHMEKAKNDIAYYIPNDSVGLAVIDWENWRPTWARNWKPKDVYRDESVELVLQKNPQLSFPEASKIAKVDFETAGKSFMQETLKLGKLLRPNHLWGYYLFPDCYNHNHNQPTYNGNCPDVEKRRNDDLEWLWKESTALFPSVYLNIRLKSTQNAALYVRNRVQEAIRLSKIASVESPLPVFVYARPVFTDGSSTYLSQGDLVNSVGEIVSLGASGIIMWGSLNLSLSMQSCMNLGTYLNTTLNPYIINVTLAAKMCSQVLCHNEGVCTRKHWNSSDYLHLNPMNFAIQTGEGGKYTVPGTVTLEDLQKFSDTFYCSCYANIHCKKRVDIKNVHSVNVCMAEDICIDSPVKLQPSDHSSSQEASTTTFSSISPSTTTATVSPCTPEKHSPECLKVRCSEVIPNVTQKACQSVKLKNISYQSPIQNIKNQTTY
Excerpt: The […] flowering herb was collected from its natural habitat in Umer in the Świętokrzyskie region (Poland) in July 2011. Its identity was confirmed anatomically and morphologically based on its pharmacopoeial monograph in the Department of Pharmacognosy and Molecular Basis of Phytotherapy, Medical University of Warsaw, where the voucher specimen UMER2011 is deposited. […] […]), castalagin ([…] (SB) and […]. 1, 2) from […] performed according to Piwowarski and Kiss. […] Isolated ellagitannins were of >95 % purity (determined by the HPLC-DAD-CAD method). […] Gallic acid (>96 % purity) was purchased from ChromaDex (Santa Ana, USA). Propidium iodide was purchased from BD Biosciences (San Diego, CA, USA). All substances used were of >95 % purity. Phosphate-buffered saline (PBS) was purchased from Gibco (Carlsbad, CA, USA). The influence of extract and ellagitannins on hyaluronidase activity was measured using the USP turbidimetric method modified by Piwowarski et al. […] Heparin was used as a positive control.

[5] = tested on: ROS; assay: ROS release from f-MLP-stimulated neutrophils, luminol chemiluminescence; assay type: cell-based, human; settings: % of stimulated control
Excerpt: as §1
(§3) Generation of oxidants by f-MLP or PMA-stimulated neutrophils was measured using luminol- or lucigenin-dependent chemiluminescence tests. 70 μL of cell suspension (2 × 10^5/mL) in HBSS was incubated with 50 μL of compound or extract solution (final concentrations of 1, 5 and 20 μM or μg/mL) together with 50 μL of luminol (100 μM) or lucigenin (200 μM) solution. ROS production was initiated by the addition of 30 μL of f-MLP (0.1 μg/mL) or PMA (1 μg/mL). Changes in chemiluminescence at 37 °C were measured immediately for 45 min at intervals of 2 min in a microplate reader (Biotek). Ascorbic acid was used as a positive control.

[6] = tested on: ROS; assay: ROS release from PMA-stimulated neutrophils, lucigenin chemiluminescence; assay type: cell-based, human; settings: PMA + lucygenin, % of stimulated control
Excerpt: as §1, §3

[7] = tested on: MPO; assay: MPO release from cytochalasin A/f-MLP-stimulated neutrophils (TMB substrate); assay type: cell-based, human; settings: cytochalasin A/f-MLP, % of stimulated control
Excerpt: Peripheral venous blood was taken from healthy human donors (20-35 years old) in the Warsaw Blood Donation Centre. […] The study conformed to the principles of the Declaration of Helsinki. Neutrophils were isolated using a standard method of dextran sedimentation prior to hypotonic lysis of erythrocytes and to centrifugation in a Ficoll Hypaque gradient. The purity of neutrophil preparations was >97 %, and viability measured by trypan blue exclusion was >98 %. Neutrophils were then resuspended in appropriate medium to perform the selected assay. Neutrophil MPO release was determined using TMB as a substrate. […] After centrifugation (2000 rpm; 10 min; 4 °C), 100 μL of supernatant was incubated with 50 μL of the TMB liquid substrate system. The reaction was terminated after 20 min by the addition of 2 M hydrochloric acid. The absorbance was measured at […] using a microplate reader (BioTek). Gallic acid was used as a positive control, according to Kroes et al..

Row | Molecule | MMP-9 production Mean (%) ([1]; 1 μM) | MMP-9 production Mean (%) ([1]; 5 μM) | MMP-9 production Mean (%) ([1]; 20 μM) | IL-8 production Mean (%) ([2]; 1 μM) | IL-8 production Mean (%) ([2]; 5 μM) | IL-8 production Mean (%) ([2]; 20 μM) | Elastase release Mean(%) ([3]; 1 μM) | Elastase release Mean(%) ([3]; 5 μM) | Elastase release Mean(%) ([3]; 20 μM) | ROS release Mean(%) ([5]; 1 μM) | ROS release Mean(%) ([5]; 5 μM) | ROS release Mean(%) ([5]; 20 μM) | ROS release Mean(%) ([6]; 1 μM) | ROS release Mean(%) ([6]; 5 μM) | ROS release Mean(%) ([6]; 20 μM) | MPO release Mean(%) ([7]; 1 μM) | MPO release Mean(%) ([7]; 5 μM) | MPO release Mean(%) ([7]; 20 μM) | other results
1 | COc1cc(/C=C/C(=O)CC(=O)/C=C/c2ccc(O)c(OC)c2)ccc1O [Cur, curcumin, reference compound] | 100,14% | 64,26% | 39,26% | 112,66% | 58,75% | 26,70% |  |  |  |  |  |  |  |  |  |  |  |  | 
2 | O=c1c(O)c(-c2ccc(O)c(O)c2)oc2cc(O)cc(O)c12 [Q, quercetin, reference compound] |  |  |  |  |  |  | 104,09% | 78,40% | 55,22% |  |  |  |  |  |  |  |  |  | 
3 | O=C(OC1COC(=O)c2cc(O)c(O)c(O)c2-c2c(cc(O)c(O)c2O)C(=O)OC1C1OC(=O)c2cc(O)c(O)c(O)c2-c2c(O)c(O)c(O)c3c2C(=O)OC1C3O)c1cc(O)c(O)c(O)c1Oc1cc2c(c(O)c1O)-c1c(cc(O)c(O)c1O)C(=O)OCC1OC(=O)c3cc(O)c(O)c(O)c3-c3c(O)c(O)c(O)c4c3C(=O)OC(C1OC2=O)C1OC(=O)c2c-4c(O)c(O)c(O)c2C1O (centres unmarked) [SA, salicarinin A] | 100,80% | 92,00% | 96,35% | 89,82% | 81,38% | 79,80% | 80,47% | 63,45% | 42,22% | 54,14% | 27,84% | 19,49% | 66,68% | 44,80% | 14,59% | 61,96% | 31,79% | 1,52% | IC50 [4]: 1600 ± 100 nM; Hyaluronidase activity Mean(%) ([4]; 1 μM): 75,50%; Hyaluronidase activity Mean(%) ([4]; 2 μM): 35,96%; Hyaluronidase activity Mean(%) ([4]; 5 μM): 0,50%; Hyaluronidase activity Mean(%) ([4]; 20 μM): 1,13%
4 | O=C(OC1COC(=O)c2cc(O)c(O)c(O)c2-c2c(cc(O)c(O)c2O)C(=O)OC1C1OC(=O)c2cc(O)c(O)c(O)c2-c2c(O)c(O)c(O)c3c2C(=O)OC1C3O)c1cc(O)c(O)c(O)c1Oc1cc2c(c(O)c1O)-c1c(cc(O)c(O)c1O)C(=O)OCC1OC(=O)c3cc(O)c(O)c(O)c3-c3c(O)c(O)c(O)c4c3C(=O)OC(C1OC2=O)C1OC(=O)c2c-4c(O)c(O)c(O)c2C1O (centres unmarked) [SB, salicarinin B] | 99,56% | 95,83% | 78,81% | 107,98% | 78,12% | 59,17% | 82,54% | 65,03% | 38,16% | 61,64% | 28,73% | 16,39% | 64,77% | 36,09% | 13,06% | 67,99% | 49,60% | 2,93% | IC50 [4]: 1600 ± 200 nM; Hyaluronidase activity Mean(%) ([4]; 1 μM): 70,96%; Hyaluronidase activity Mean(%) ([4]; 2 μM): 34,62%; Hyaluronidase activity Mean(%) ([4]; 5 μM): -0,07%; Hyaluronidase activity Mean(%) ([4]; 20 μM): 0,50%
5 | O=C1O[C@H]([C@@H](O)CO)C(O)=C1O [VitC, ascorbic acid, reference compound] |  |  |  |  |  |  |  |  |  | 91,10% | 79,14% | 61,91% | 93,99% | 94,53% | 85,15% |  |  |  | 
6 | O=C(O)c1cc(O)c(O)c(O)c1 [gal, Gallic acid, reference compound] |  |  |  |  |  |  |  |  |  |  |  |  |  |  |  | 85,62% | 58,97% | 18,88% | 
7 | Heparin [reference compound] |  |  |  |  |  |  |  |  |  |  |  |  |  |  |  |  |  |  | Hyaluronidase activity Mean(%) ([4]; 1 μg/mL): 100,00%; Hyaluronidase activity Mean(%) ([4]; 2 μg/mL): 96,35%; Hyaluronidase activity Mean(%) ([4]; 5 μg/mL): 89,89%; Hyaluronidase activity Mean(%) ([4]; 20 μg/mL): 82,73%

— publication PMC4544630, “Contribution of C-glucosidic ellagitannins to Lythrum salicaria L. influence on pro-inflammatory functions of human neutrophils” (Journal of Natural Medicines, 2014)
